Reference: article PMC9851200, “Multiparameter phenotypic screening for endogenous TFEB and TFE3 translocation identifies novel chemical series modulating lysosome function” (Autophagy, 2022)

Assays:
Type in all cases: binding
[1] = biological target: kinases (KINOMEscan panel) (Homo sapiens, UniProt P21860); conditions: ERBB3; NEW KINOMEscan
[2] = biological target: T1, kinases (KINOMEscan panel) (Homo sapiens, UniProt P29320); conditions: kinase EPHA3; NEW KINOMEscan
T1 sequence (P29320 21-983): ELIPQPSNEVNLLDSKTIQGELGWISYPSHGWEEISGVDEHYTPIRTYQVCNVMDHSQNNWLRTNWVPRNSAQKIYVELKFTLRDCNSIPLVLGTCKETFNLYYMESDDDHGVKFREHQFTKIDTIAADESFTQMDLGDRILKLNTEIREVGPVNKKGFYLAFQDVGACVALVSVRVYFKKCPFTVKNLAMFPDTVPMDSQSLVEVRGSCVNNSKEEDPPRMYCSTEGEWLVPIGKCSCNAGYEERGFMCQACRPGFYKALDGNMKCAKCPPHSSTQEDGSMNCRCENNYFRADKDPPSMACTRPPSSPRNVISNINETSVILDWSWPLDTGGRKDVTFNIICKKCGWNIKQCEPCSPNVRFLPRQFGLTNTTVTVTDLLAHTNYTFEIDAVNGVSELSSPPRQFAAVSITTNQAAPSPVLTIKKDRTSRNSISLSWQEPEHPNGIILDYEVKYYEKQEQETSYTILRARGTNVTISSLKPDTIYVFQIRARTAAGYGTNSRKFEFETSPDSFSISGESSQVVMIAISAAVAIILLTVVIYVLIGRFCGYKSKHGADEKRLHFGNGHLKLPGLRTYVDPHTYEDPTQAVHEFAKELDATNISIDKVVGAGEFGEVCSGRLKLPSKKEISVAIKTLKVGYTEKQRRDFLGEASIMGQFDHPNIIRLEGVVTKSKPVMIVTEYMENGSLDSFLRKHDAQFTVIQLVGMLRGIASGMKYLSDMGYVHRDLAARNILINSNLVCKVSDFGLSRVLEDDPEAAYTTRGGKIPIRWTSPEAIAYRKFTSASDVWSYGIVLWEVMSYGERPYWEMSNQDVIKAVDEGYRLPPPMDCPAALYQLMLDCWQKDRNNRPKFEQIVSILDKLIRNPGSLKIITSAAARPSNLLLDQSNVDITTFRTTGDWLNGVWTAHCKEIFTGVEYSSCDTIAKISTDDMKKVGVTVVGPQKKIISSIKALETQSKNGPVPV

[3] = biological target: kinases (KINOMEscan panel) (Homo sapiens, UniProt P29597); conditions: NEW KINOMEscan; for KINOMEscan TYK2(JH1domain-catalytic): kinase TYK2(JH1domain-catalytic)
[4] = biological target: T2, kinases (KINOMEscan panel) (Homo sapiens, UniProt P41743); conditions: PRKCI; NEW KINOMEscan
T2 sequence (P41743 1-596): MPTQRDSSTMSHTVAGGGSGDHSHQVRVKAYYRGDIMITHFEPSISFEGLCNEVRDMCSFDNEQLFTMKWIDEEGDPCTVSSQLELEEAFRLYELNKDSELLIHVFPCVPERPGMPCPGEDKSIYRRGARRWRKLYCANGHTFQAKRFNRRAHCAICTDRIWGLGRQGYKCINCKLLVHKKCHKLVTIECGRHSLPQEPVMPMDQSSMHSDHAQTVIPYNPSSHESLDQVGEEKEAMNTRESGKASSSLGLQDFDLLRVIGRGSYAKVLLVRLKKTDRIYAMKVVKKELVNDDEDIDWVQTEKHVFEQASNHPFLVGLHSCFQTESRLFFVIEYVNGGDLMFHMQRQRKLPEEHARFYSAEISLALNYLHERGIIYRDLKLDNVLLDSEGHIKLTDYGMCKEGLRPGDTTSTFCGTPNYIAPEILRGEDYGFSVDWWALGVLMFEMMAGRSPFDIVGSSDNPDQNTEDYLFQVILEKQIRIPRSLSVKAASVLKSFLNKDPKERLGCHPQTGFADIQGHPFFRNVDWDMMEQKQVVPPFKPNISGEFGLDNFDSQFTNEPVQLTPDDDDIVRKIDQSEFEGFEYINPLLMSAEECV

[5] = biological target: kinases (KINOMEscan panel) (Homo sapiens, UniProt P42684); conditions: ABL2; NEW KINOMEscan
[6] = biological target: T3, kinases (KINOMEscan panel) (Homo sapiens, UniProt P51817); conditions: kinase PRKX; NEW KINOMEscan
T3 sequence (P51817 1-358): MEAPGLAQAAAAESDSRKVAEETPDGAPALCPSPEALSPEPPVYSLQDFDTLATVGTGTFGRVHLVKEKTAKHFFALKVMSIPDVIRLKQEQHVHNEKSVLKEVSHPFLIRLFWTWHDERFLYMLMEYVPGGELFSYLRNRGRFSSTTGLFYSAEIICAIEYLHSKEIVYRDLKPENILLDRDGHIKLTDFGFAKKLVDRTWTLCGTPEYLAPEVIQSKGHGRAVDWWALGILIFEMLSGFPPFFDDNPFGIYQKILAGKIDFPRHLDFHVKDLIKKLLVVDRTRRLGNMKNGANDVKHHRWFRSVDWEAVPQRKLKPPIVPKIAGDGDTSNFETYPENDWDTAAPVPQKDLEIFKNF

Chain of kinases (KINOMEscan panel) (Homo sapiens, UniProt P29597) (P29597 whole entry): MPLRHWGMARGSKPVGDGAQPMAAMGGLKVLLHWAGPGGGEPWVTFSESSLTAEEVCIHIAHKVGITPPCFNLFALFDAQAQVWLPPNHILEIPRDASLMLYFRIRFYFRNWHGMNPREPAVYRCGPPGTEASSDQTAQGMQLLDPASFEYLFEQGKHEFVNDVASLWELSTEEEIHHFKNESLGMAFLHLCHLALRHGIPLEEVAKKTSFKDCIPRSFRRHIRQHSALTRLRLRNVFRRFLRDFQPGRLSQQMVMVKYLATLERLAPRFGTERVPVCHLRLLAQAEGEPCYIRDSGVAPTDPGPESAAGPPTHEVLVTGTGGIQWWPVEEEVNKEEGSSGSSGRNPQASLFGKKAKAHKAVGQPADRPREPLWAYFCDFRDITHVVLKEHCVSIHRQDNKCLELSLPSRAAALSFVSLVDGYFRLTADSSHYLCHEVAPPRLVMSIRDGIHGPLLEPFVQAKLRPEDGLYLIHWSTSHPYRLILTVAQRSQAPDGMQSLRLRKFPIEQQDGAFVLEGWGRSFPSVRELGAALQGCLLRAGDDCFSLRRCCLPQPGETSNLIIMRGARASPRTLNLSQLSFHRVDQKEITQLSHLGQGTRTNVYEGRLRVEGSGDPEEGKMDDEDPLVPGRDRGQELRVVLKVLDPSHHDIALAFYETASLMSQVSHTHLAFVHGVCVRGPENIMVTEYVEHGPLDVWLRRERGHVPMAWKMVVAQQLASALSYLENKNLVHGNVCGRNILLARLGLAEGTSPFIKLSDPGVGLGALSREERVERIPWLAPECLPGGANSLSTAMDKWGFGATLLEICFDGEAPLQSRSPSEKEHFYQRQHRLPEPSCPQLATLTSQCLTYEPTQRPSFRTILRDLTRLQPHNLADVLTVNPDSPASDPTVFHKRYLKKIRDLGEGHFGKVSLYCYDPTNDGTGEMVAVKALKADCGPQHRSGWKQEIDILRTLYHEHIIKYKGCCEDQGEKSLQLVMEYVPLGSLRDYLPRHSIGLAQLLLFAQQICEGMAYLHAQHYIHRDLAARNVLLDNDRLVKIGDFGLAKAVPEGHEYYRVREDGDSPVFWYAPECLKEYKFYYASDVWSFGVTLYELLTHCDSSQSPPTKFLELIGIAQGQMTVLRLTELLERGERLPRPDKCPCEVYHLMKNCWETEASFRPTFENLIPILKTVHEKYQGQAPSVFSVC
Chain of kinases (KINOMEscan panel) (Homo sapiens, UniProt P42684) (P42684 whole entry): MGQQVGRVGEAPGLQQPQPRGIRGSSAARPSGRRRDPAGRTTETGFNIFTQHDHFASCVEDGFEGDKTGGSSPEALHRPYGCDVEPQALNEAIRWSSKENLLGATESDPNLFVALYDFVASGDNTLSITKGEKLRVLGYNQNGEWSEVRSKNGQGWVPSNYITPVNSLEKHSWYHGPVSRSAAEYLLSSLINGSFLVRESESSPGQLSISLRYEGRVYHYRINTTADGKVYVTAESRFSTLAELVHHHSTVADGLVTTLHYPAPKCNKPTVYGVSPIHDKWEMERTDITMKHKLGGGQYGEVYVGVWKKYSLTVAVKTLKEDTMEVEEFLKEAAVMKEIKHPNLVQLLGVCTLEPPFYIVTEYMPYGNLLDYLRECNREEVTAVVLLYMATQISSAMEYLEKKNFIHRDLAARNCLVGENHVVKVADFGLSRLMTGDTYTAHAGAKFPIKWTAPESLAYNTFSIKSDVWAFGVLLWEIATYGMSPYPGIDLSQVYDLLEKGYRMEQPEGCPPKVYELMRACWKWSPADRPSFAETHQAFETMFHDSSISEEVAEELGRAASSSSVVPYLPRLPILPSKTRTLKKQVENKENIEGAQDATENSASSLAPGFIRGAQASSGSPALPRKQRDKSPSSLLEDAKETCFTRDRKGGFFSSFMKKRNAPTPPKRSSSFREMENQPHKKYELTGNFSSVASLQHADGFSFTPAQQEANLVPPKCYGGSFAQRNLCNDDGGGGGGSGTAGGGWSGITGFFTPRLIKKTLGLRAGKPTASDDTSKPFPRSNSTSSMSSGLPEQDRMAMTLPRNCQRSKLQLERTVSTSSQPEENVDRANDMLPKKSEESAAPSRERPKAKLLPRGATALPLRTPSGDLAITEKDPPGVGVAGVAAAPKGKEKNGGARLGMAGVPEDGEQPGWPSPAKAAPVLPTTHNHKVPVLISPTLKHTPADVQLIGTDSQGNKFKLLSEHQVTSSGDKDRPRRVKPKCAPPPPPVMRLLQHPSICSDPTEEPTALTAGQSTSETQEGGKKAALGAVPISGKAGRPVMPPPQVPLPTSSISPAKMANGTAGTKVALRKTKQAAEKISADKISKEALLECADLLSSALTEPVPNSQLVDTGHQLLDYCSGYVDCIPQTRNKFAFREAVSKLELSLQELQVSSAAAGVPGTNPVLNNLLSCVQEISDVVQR
Chain of kinases (KINOMEscan panel) (Homo sapiens, UniProt P21860) (P21860 20-1342): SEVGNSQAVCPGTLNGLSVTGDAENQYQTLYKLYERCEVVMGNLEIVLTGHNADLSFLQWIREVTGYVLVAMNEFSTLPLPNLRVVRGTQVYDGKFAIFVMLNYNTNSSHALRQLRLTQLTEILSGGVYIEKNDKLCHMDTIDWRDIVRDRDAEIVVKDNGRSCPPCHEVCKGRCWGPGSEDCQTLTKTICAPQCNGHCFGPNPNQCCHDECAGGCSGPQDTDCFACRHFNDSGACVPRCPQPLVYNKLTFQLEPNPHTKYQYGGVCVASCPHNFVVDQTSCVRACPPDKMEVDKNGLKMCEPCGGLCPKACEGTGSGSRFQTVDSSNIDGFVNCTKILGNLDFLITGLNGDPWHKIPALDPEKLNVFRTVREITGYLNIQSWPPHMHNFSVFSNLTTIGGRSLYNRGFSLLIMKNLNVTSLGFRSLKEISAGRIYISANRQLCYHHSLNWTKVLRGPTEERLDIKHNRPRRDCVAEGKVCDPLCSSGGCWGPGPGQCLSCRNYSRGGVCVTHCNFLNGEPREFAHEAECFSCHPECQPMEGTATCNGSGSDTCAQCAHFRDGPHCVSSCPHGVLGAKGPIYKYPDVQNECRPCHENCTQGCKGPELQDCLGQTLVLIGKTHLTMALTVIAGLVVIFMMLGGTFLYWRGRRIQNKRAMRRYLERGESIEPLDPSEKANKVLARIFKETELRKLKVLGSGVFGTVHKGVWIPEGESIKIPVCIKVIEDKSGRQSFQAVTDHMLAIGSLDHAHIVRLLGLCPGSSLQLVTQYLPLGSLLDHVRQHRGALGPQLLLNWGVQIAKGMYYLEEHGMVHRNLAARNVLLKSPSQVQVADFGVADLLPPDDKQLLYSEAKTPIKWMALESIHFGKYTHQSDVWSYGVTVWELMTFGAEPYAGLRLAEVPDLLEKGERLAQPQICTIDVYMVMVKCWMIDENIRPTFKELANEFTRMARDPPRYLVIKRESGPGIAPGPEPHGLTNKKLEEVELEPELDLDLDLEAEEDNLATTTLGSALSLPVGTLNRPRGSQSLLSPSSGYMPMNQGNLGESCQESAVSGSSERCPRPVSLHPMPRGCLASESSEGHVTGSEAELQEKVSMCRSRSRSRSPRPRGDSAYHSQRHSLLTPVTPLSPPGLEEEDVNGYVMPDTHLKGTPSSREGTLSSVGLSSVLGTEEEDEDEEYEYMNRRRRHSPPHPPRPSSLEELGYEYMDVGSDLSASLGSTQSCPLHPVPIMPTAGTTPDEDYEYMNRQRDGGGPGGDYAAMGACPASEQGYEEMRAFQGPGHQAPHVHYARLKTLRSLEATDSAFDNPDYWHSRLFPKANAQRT

SMILES | KINOMEscan ERBB3 [1] | KINOMEscan EPHA3 [2] | KINOMEscan TYK2(JH2domain-pseudokinase) [3] | KINOMEscan TYK2(JH1domain-catalytic) [3] | KINOMEscan PRKCI [4] | KINOMEscan ABL2 [5] | KINOMEscan PRKX [6]
Cc1cccc(-c2nc(Nc3ccc4nn(C)cc4c3)c3ccccc3n2)n1 [NK167] | 0 | 0 | 0 | 0 | 0 | 0 | 0
Cc1cccc(-c2nc(N(C)c3ccc4ncsc4c3)c3ccccc3n2)n1 [NK-161] | 11 | 0 | 12 | 0 | 0 | 8 | 7
